Experimental data as given in PMC12293755, “Synthesis and Cytotoxicity Evaluation of Denitroaristolochic Acids: Structural Insights and Mechanistic Implications in Nephrotoxicity” (Biomolecules, 2025).

Experiments:
[1] = CCK-8 cytotoxicity assay in HK2 cells; format: cell-based, human; settings: human, CCK-8, 24 h compound exposure, 3 to 1000 μM, ND: not detected, read-out: IC50 (μM), cytotoxic effects on HK2 cells in vitro
Method: (§1) This study systematically investigated the cytotoxic effects and structure-activity relationships of denitroaristolochic acid analogs (DAA-II, DAA-III, DAA-IV, DAA-V) on human renal cortical proximal tubular epithelial cells (HK2) using the cell counting kit-8 (CCK-8) assay. HK2 cells were maintained in Dulbecco’s modified eagle medium (DMEM) supplemented with 10% fetal bovine serum under standard culture conditions (37 °C, 5% CO2). At 80% confluence, cells were trypsinized and seeded into 96-well plates at a density of 1 × 10^4 cells/well, followed by a 4–6 h attachment period prior to compound exposure. Stock solutions ([…]) of each DAA were prepared in DMSO and serially diluted to final concentrations ranging from 3 to 1000 μM, with DMSO concentration strictly maintained at 0.5% (v/v) in all treatment groups. Experimental controls included AA-I as positive control and 0.5% DMSO-containing medium as vehicle control. Following 24 h compound exposure, cell viability was assessed using CCK-8 reagent according to manufacturer specifications: 10 μL CCK-8 solution was added to each well, followed by 2 h incubation under light-protected conditions. Absorbance was measured at 450 nm using a microplate reader, with morphological observations conducted via inverted phase-contrast microscopy.
(§2) This study systematically evaluated the cytotoxic effects of aristolochic acids (AAs) on HK2 cells (the HK2 cell lines were from the Cell Bank of the Chinese Academy of Sciences) using the CCK-8 assay. […] This finding provides novel insights into the toxicological mechanisms of aristolochic acid analogs, and their precise mode of action warrants further elucidation through integrated toxicological approaches, including metabolomic profiling, signaling pathway screening, and molecular docking studies.

HK2 cells = experiment: CCK-8 cytotoxicity assay in HK2 cells; format: cell-based, human; settings: CCK-8, 24 h compound exposure, 3 to 1000 μM
Method: as §1, §2

Row | SMILES | cytotoxicity in human renal proximal tubular epithelial cells (result in words) (HK2 cells) | IC50 [1] | also measured
1 | COc1cccc2c1cc([N+](=O)[O-])c1c(C(=O)O)cc3c(c12)OCO3 [AA-I, aristolochic acid I, reference compound] |  |  | IC50 at 24 h [1]: 270 µM
2 | O=C(O)c1cc2c(c3c1ccc1ccccc13)OCO2 [DAA-II, phenanthro [3,4-d][1,3]dioxole-5-carboxylic acid] | no detectable cytotoxicity |  | 
3 | COc1ccc2ccc3c(C(=O)O)cc4c(c3c2c1)OCO4 [DAA-III, 10-Methoxyphenanthro [3,4-d][1,3]dioxole-5-carboxylic acid] |  | 371 µM | 
4 | COc1cc(OC)c2ccc3c(C(=O)O)cc4c(c3c2c1)OCO4 [DAA-IV, 8,10-dimethoxyphenanthro [3,4-d][1,3]dioxole-5-carboxylic acid] |  | 515 µM | 
5 | COc1cc2ccc3c(C(=O)O)cc4c(c3c2cc1OC)OCO4 [DAA-V, 9,10-Dimethoxyphenanthro [3,4-d][1,3]dioxole-5-carboxylic acid] | no detectable cytotoxicity |  | 
